According to patent US9776987B2, “Amide derivatives for GPR119 agonist” (CHONG KUN DANG PHARMACEUTICAL CORP., priority 2013, dated 2017):
Values after ≈ are worked out from the molar mass of the structure shown. Like-named read-outs stand apart in the source and are kept apart here.

Key:
[1] = Solubility test of GPR 119 agonist compounds (Nephelostar); assay type: physicochemical; settings: aqueous with cosolvent or surfactant or cyclodextrin, kinetic from dmso stock
Experimental: 1. Method of Solubility Test
Each test compounds were dissolved in 5% DMSO aqueous solution as a solvent at several concentrations. When a laser was irradiated to the solution, the particles, which are not dissolved in the solvent, scatter the light. The level of the scattered light is dependent to the number of the particles, so the solubility of the test compound in the solution can be determined using the relationship. As the test equipment, Nephelostar was used.

[2] = biological target: T1, human GPR119 receptor (Homo sapiens, UniProt Q8TDV5); experiment: Activity test for human GPR119 receptor (GeneBLAzer T-Rex GPR 119 CHO-K1 DA cells); assay type: cell-based; settings: for EC50: human GPR119 receptor expressing CHO-K1 cells, 5 hours treatment, read-out: hGPR119 EC50; for activity for human GPR119 receptor (in words): judgement on the EC50 values of Table 11
T1 construct: host or cells: GeneBLAzer T-Rex GPR 119 CHO-K1 DA cells (CHO-K1)
T1 sequence (Q8TDV5 1-335): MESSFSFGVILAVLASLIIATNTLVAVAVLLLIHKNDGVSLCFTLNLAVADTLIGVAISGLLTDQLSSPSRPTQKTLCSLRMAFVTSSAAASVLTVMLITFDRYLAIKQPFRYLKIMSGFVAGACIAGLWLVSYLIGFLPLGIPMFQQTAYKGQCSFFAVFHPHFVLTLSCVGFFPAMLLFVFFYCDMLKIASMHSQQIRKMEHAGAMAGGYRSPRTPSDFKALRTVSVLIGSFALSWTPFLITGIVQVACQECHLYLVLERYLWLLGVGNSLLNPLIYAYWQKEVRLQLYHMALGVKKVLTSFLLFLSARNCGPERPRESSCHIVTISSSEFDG
Experimental: 1. Human GPR119 Receptor Cell
As a human GPR119 receptor expression cell for this test, the cell line “GeneBLAzer™ T-Rex GPR 119 CHO-K1 DA cells” that is commercially available from Invitrogen, was used. The cell was incubated in the DMEM media containing 1% dialyzed fetal bovine serum etc. The cell incubator was kept at constant temperature and constant humidity of 37° C., 5% CO2.
2. Activity Test for Human GPR119 Receptor
The human GPR119 receptor expressing cell was used to this test. Each of test compounds was added to be final concentrations of 0.1, 1, 10 μM in 96 well and tested in duplicate. A fixed amount of cell was added to each well of 96 well separately, and then treated with the test compound for 5 hours. After treatment of color development agent for 2 hours, the fluorescence value was determined with plate reader. To the luminous wavelength of control well, which was not treated with the sample, but in which only a vehicle […] was contained, the ratio of the luminous wavelength of test well, which was treated with the sample, was calculated, and then converted to obtain EC50 value.
3. Statistical Processing
All the results were expressed as mean±SD, and each test groups and the control group were compared using student's t-test to adjudge the effects of each test groups.

[3] = pH 2, 5% DMSO aqueous solution, read-out: Solubility pH 2
[4] = pH 4, 5% DMSO aqueous solution, read-out: Solubility pH 4
[5] = pH 6, 5% DMSO aqueous solution, read-out: Solubility pH 6
[6] = pH 8, 5% DMSO aqueous solution, read-out: Solubility pH 8

C[C@@]1(C(N)=O)C[C@@H](O)CN1C(=O)c1ccc(-c2ccc(OCC3CCN(CC4(C(F)(F)F)CCC4)CC3)nc2)c(F)c1 [Compound 1325, (2S,4R)-1-(3-fluoro-4-(6-((1-((1-(trifluoromethyl)cyclobutyl)methyl)piperidin-4-yl)methoxy)pyridin-3-yl)benzoyl)-4-hydroxy-2-methylpyrrolidin-2-carboxamide]
solubility [1, 3]: > 296 µg/mL | solubility [1, 4]: > 296 µg/mL | solubility [1, 5]: > 296 µg/mL | solubility [1, 6]: 114 µg/mL (≈ 192 µM) | EC50 [2]: 14 nM | activity for human GPR119 receptor (in words) [2]: excellent activity

CCC(F)(CC)CN1CCC(COc2ccc(-c3ccc(C(=O)N4C[C@H](O)C[C@@]4(C)C(N)=O)cc3F)nc2)CC1 [Compound 1292, (2S,4R)-1-(4-(5-((1-(2-ethyl-2-fluorobutyl)piperidin-4-yl)methoxy)pyridin-2-yl)-3-fluorobenzoyl)-4-hydroxy-2-methylpyrrolidin-2-carboxamide]
solubility [1, 3]: > 279 µg/mL | solubility [1, 4]: > 279 µg/mL | solubility [1, 5]: > 279 µg/mL | solubility [1, 6]: > 279 µg/mL | EC50 [2]: 12 nM

C[C@@]1(C(N)=O)C[C@@H](O)CN1C(=O)c1ccc(-c2ccc(OCC3CCN(CC4(C(F)(F)F)CCC4)CC3)cn2)c(F)c1 [Compound 1329, (2S,4R)-1-(3-fluoro-4-(5-((1-((1-(trifluoromethyl)cyclobutyl)methyl)piperidin-4-yl)methoxy)pyridin-2-yl)benzoyl)-4-hydroxy-2-methylpyrrolidin-2-carboxamide]
solubility [1, 3]: > 296 µg/mL | solubility [1, 4]: > 296 µg/mL | solubility [1, 5]: > 296 µg/mL | solubility [1, 6]: 112 µg/mL (≈ 189 µM) | EC50 [2]: 10 nM | activity for human GPR119 receptor (in words) [2]: excellent activity

CC(C)(CN1CCC(COc2ccc(-c3ccc(C(=O)N4C[C@H](O)C[C@@]4(C)C(N)=O)c(F)c3)nc2)CC1)C(F)(F)F [Compound 1294, (2S,4R)-1-(2-fluoro-4-(5-((1-(3,3,3-trifluoro-2,2-dimethylpropyl)piperidin-4-yl)methoxy)pyridin-2-yl)benzoyl)-4-hydroxy-2-methylpyrrolidin-2-carboxamide]
solubility [1, 3]: > 290 µg/mL | solubility [1, 4]: > 290 µg/mL | solubility [1, 5]: 203 µg/mL (≈ 350 µM) | solubility [1, 6]: 52 µg/mL (≈ 89.6 µM) | EC50 [2]: 19 nM | activity for human GPR119 receptor (in words) [2]: excellent activity

CCC(F)(CC)CN1CCC(COc2ccc(-c3ccc(C(=O)N4C[C@H](O)C[C@H]4C(N)=O)cc3F)cc2)CC1 [Compound 1205]
solubility [1, 3]: > 271 µg/mL | solubility [1, 4]: > 271 µg/mL | solubility [1, 5]: 157 µg/mL (≈ 289 µM) | solubility [1, 6]: 55 µg/mL (≈ 101 µM) | EC50 [2]: 2 nM

CCC(F)(CC)CN1CCC(COc2ccc(-c3ccc(C(=O)N4C[C@H](O)C[C@H]4C(N)=O)cc3F)nc2)CC1 [Compound 1287, (2S,4R)-1-(4-(5-((1-(2-ethyl-2-fluorobutyl)piperidin-4-yl)methoxy)pyridin-2-yl)-3-fluorobenzoyl)-4-hydroxypyrrolidin-2-carboxamide]
EC50 [2]: 20 nM

NC(=O)[C@@H]1CCCN1C(=O)c1ccc(-c2ccc(OCC3CCN(CC(F)(F)C(F)(F)F)CC3)cc2)cc1F [Compound 1239, (S)-1-(3-fluoro-4′-((1-(2,2,3,3,3-pentafluoropropyl)piperidin-4-yl)methoxy)biphenylcarbonyl)pyrrolidin-2-carboxamide]
EC50 [2]: 0.1 nM

CC(C)(CN1CCC(COc2ccc(-c3ccc(C(=O)N4CCC[C@@]4(C)C(N)=O)c(F)c3)nc2)CC1)C(F)(F)F [Compound 1269, (S)-1-(2-fluoro-4-(5-((1-(3,3,3-trifluoro-2,2-dimethylpropyl)piperidin-4-yl)methoxy)pyridin-2-yl)benzoyl)-2-methylpyrrolidin-2-carboxamide]
EC50 [2]: 0.09 nM | activity for human GPR119 receptor (in words) [2]: excellent activity

NC(=O)[C@@H]1C[C@@H](O)CN1C(=O)c1ccc(-c2cnc(OCC3CCN(CC4(C(F)(F)F)CCC4)CC3)cn2)cc1F [Compound 1200, (2S,4R)-1-(2-fluoro-4-(5-((1-((1-(trifluoromethyl)cyclobutyl)methyl)piperidin-4-yl)methoxy)pyrazin-2-yl)benzoyl)-4-hydroxypyrrolidin-2-carboxamide]
EC50 [2]: 0.8 nM | activity for human GPR119 receptor (in words) [2]: excellent activity

CCC(F)(CC)CN1CCC(COc2ccc(-c3ccc(C(=O)N4C[C@H](O)C[C@@H]4C(N)=O)cc3F)cc2)CC1 [Compound 1321, (2R,4R)-1-(4′-((1-(2-ethyl-2-fluorobutyl)piperidin-4-yl)methoxy)-2-fluorobiphenylcarbonyl)-4-hydroxypyrrolidin-2-carboxamide]
EC50 [2]: 53 nM

C[C@@]1(C(N)=O)CCCN1C(=O)c1ccc(-c2cnc(OCC3CCN(CC4(C(F)(F)F)CCC4)CC3)cn2)cc1F [Compound 1263, (S)-1-(2-fluoro-4-(5-((1-((1-(trifluoromethyl)cyclobutyl)methyl)piperidin-4-yl)methoxy)pyrazin-2-yl)benzoyl)-2-methylpyrrolidin-2-carboxamide]
EC50 [2]: 0.04 nM | activity for human GPR119 receptor (in words) [2]: excellent activity

C[C@@]1(C(N)=O)C[C@@H](O)CN1C(=O)c1ccc(-c2ccc(OCC3CCN(CC4(C(F)(F)F)CCC4)CC3)nc2)cc1F [Compound 1326, (2S,4R)-1-(2-fluoro-4-(6-((1-((1-(trifluoromethyl)cyclobutyl)methyl)piperidin-4-yl)methoxy)pyridin-3-yl)benzoyl)-4-hydroxy-2-methylpyrrolidin-2-carboxamide]
EC50 [2]: 50 nM

CC(C)(CN1CCC(COc2ccc(-c3ccc(C(=O)N4CCC[C@H]4C(N)=O)c(F)c3)nc2)CC1)C(F)(F)F [Compound 1267, (S)-1-(2-fluoro-4-(5-((1-(3,3,3-trifluoro-2,2-dimethylpropyl)piperidin-4-yl)methoxy)pyridin-2-yl)benzoyl)pyrrolidin-2-carboxamide]
EC50 [2]: 0.09 nM | activity for human GPR119 receptor (in words) [2]: excellent activity

CCC(F)(CC)CN1CCC(COc2cnc(-c3ccc(C(=O)N4C[C@H](O)C[C@H]4C(N)=O)c(F)c3)nc2)CC1 [Compound 1257, (2S,4R)-1-(4-(5-((1-(2-ethyl-2-fluorobutyl)piperidin-4-yl)methoxy)pyrimidin-2-yl)-2-fluorobenzoyl)-4-hydroxypyrrolidin-2-carboxamide]
EC50 [2]: 10 nM

CCC(F)(CC)CN1CCC(COc2ccc(-c3ccc(C(=O)N4C[C@@H](F)C[C@H]4C(N)=O)cc3F)cc2)CC1 [Compound 1210, (2S,4S)-1-(4′-((1-(2-ethyl-2-fluorobutyl)piperidin-4-yl)methoxy)-2-fluorobiphenylcarbonyl)-4-fluoropyrrolidin-2-carboxamide]
EC50 [2]: 0.2 nM

NC(=O)[C@@H]1C[C@@H](O)CN1C(=O)c1ccc(-c2ccc(OCC3CCN(CC(F)(F)C(F)(F)F)CC3)cc2)cc1F [Compound 1256, (2S,4R)-1-(3-fluoro-4′-((1-(2,2,3,3,3-pentafluoropropyl)piperidin-4-yl)methoxy)biphenylcarbonyl)-4-hydroxypyrrolidin-2-carboxamide]
EC50 [2]: 0.4 nM

NC(=O)[C@@H]1C[C@@H](O)CN1C(=O)c1ccc(-c2ccc(OCC3CCN(CC4(C(F)(F)F)CCC4)CC3)nc2)cc1F [Compound 1317, (2S,4R)-1-(2-fluoro-4-(6-((1-((1-(trifluoromethyl)cyclobutyl)methyl)piperidin-4-yl)methoxy)pyridin-3-yl)benzoyl)-4-hydroxypyrrolidin-2-carboxamide]
EC50 [2]: 60 nM

NC(=O)[C@@H]1CCCN1C(=O)c1ccc(-c2ccc(OCC3CCN(CC(F)(F)C(F)(F)F)CC3)cn2)cc1F [Compound 1264, (S)-1-(2-fluoro-4-(5-((1-(2,2,3,3,3-pentafluoropropyl)piperidin-4-yl)methoxy)pyridin-2-yl)benzoyl)pyrrolidin-2-carboxamide]
EC50 [2]: 0.09 nM | activity for human GPR119 receptor (in words) [2]: excellent activity

C[C@@]1(C(N)=O)CCCN1C(=O)c1ccc(-c2ccc(OCC3CCN(CC4(C(F)(F)F)CCC4)CC3)cn2)cc1F [Compound 1297, (S)-1-(2-fluoro-4-(5-((1-((1-(trifluoromethyl)cyclobutyl)methyl)piperidin-4-yl)methoxy)pyridin-2-yl)benzoyl)-2-methylpyrrolidin-2-carboxamide]
EC50 [2]: 4 nM | activity for human GPR119 receptor (in words) [2]: excellent activity
